Laboratory results as given in PMC7566913, “Dual Gene Delivery Reagents From Antiproliferative Alkylphospholipids for Combined Antitumor Therapy” (Frontiers in Chemistry, 2020).
Where two headings read alike, the source gives them in different places.

What was measured:
[1] = CMC/CAC by pyrene fluorescent probe technique in ultrapure water; assay type: physicochemical; conditions: pyrene fluorescence
Method: The pro-APL molecules have been specifically engineered so they can be metabolized in situ under a biological stimulus to revert to the parent APL with antiproliferative activity. […] We thus aimed to determine the self-assembly properties of the APL prodrugs. […] Pyrene is a probe which fluorescence is sensitive to the polarity of the solubilizing medium. […] Fluorescence measurements were carried out in ultrapure water and data obtained for the various APLs and their prodrugs are shown in Table 2.
Pro-APLs Self-Assembly Properties
Starting from a lipid film, compounds were […]

H292 cells [2] = assay: Cytotoxicity, MTT assay, H292; assay type: cell-based, human
Method: (§1) The cells were exposed for a 24-h period to increasing concentration of the pro-APLs, ranging from 500 nM to 1 mM, and cell viability was assessed using the MTT colorimetric assay (Mosmann, [1983]). For the three cell lines, viability decreased in a dose-dependent manner in response to APLs and pro-APLs (Supplementary Figures 2–4). Using the best-fit regression curve method, the IC50 value (concentration that provokes 50% inhibition of the cell growth) was calculated for each compound (Table 4). The three cell lines responded to the compounds with varying sensitivities. […] This is attributed to enzyme-mediated hydrolysis of the pro-APL compounds in the complemented culture medium or in the intracellular compartment, competing with pure pH-controlled chemical hydrolysis. According to its structure, a pro-APL may or not be a substrate for specific lipases and, thus, may or not be hydrolyzed into the parent cytotoxic compound. […]
(§2) At confluency, cells were released […]
(§3) Cells were seeded into 96-well plates (Becton-Dickinson) at the required density (vide supra) in 100 µL of serum containing culture medium. […]
(§4) Mitochondrial activity measurements (MTT assay) was used to assess cytotoxicity of the compounds.
(§5) Lipid samples were prepared from a lipid film (3.6 µmol of compound evaporated from an ethanolic solution) hydrated with aqueous glucose 5 % and vigorously vortexed for 20 s before serial dilution in aqueous glucose 5 %. For addition of lipid samples to cell culture, part of the culture medium in the culture plates prepared the day before (25 µL) was removed and replaced by lipid samples (25 µL). Negative control was obtained by adding glucose 5 % to the cells instead of lipoplexes.
(§6) After a 24-h incubation period at 37 °C, culture supernatant was removed, cells were carefully washed with PBS and MTT (100 µL, 0.5 mg/mL) in complete culture medium was added. After a 1-h incubation period at 37 °C, the MTT sol ution was removed and DMSO (100 µL) was added to lyse cells and dissolve reduced MTT. Intensity of MTT reduction was then evaluated by measuring absorbance at 492 nm. Viability of cells treated with lipids or lipoplexes was expressed as the percentage of the absorbance measured in untreated cells. Value for each sample is the mean of triplicate determinations (± SD). IC50 values were determined within the 95 % confidence interval using nonlinear regression analysis with the GraphPad Prism software (GraphPad Software, San […]
(§7) All data are representative of a triplicate determination and are presented as the mean ± SD.
(§8) Statistical significance between treatments was assessed by one-way analysis of variance (ANOVA) followed by the Dunnett multiple comparison test, using the Kaleidagraph 4.5 software (Synergy Software, Reading, PA, USA). Data were considered as statistically significant for p value less than

A549 cells [3] = assay: Cytotoxicity, MTT assay, A549; assay type: cell-based, human; conditions: A549, 24 h at 37°C
Method: as §1, §2, §3, §4, §5, §6, §7, §8

[4] = Particle size and zeta potential of lipoplexes by DLS; assay type: physicochemical; conditions: lipoplexes with pCMV-Gluc, 25 °C, 5 % glucose, N/P 3, 1 molar equivalent of DOPE
Source text: The capacity of the pro-APLs to interact electrostatically with nucleic acids and form lipoplexes was checked by standard agarose gel electrophoresis. […] The size (hydrodynamic diameter) and charge (zeta potential, ζ) of the lipoplexes prepared at an N/P ratio of 3 with one molar equivalent of dioleoyl-sn-glycero-3-phosphatidylethanolamine (DOPE), a lipid with fusogenic properties (Hui et al., [1996]; Zuhorn et al., [2005]), were investigated by DLS (Supplementary Table 1).
as measured by DLS. Lipoplexes were prepared at 25 °C, in 5 % glucose, at a N/P ratio of 3 and with
1 molar equivalent of DOPE.
(Gaillard et al., 2019). Data are the mean of three independent measurements (± SD).

[5] = Hydrolytic stability of the APL prodrugs monitored by 31P-NMR; assay type: physicochemical; conditions: for Hydrolytic stability after extended incubation: pH 7.4 and pH 4.5, 31 days at 25°C; for half-life: extrapolated from the experimental data, read-out: t1/2 (time needed for 50% hydrolysis) (converted)
Source text: Aqueous formulation of the APL prodrugs produces nanosized lipid aggregates that most likely enter cells through the endocytosis pathway. To produce the expected intrinsic antineoplastic effect, APL-derived phosphotriesters need to be processed into the bioactive parent APLs. The hydrolysis of the prodrugs may be under the control of a chemical stimulus, e.g., a pH decrease as observed during the maturation of endosomes, or of degradation enzymes that massively enter the endosome compartment when continuing to lysosomes. To get some information on the transformation of pro-APLs into APLs, we monitored the hydrolysis of these compounds over time, at pH 7.4 and 4.5, conditions that mimick the extracellular milieu and the environment of the late endosome, respectively. This monitoring was realized using ^31P-NMR spectroscopy, according to a previously reported method (Pierrat et al., [2013b]). Whatever the compound investigated, only one single ^31P resonance did appear during the course of the experiments, corresponding to that of the parent APL. This confirmed that hydrolysis of the pro-APLs selectively occurred at the acetal center. […] As a general trend, hydrolysis of the pro-APLs was […] under neutral conditions (i.e., pH 7.4) than under acidic ones (i.e., pH 4.5). […] Besides, substitution of one hydrogen atom with a methyl group on the acetal bridge accelerated the rate of hydrolysis of the prodrugs. […] Indeed, in biological media, the enzyme-mediated hydrolysis of such compounds can proceed far quicker than “simple” chemical hydrolysis under pH control (Pierrat et al., [2012]). […]

16HBE cells [6] = assay: Cytotoxicity, MTT assay, 16HBE; assay type: cell-based, human; conditions: 24 h at 37°C
Method: as §1, §2, §3, §4, §5, §6, §7, §8

sheep RBC [7] = assay: Hemolytic activity, red blood cell leakage assay; conditions: 37°C
Method: To evaluate this hypothesis, the hemolytic activity of the APLs and pro-APLs was measured. Sheep RBC were incubated for 1 h with escalating doses of aqueous dispersion of the compounds at 37°C. At the end of the incubation period, hemoglobin leakage was determined spectrophotometrically.
Thus, in order to better characterize the hemolytic effect of the pro-APLs, the incubation period has been extended and release of hemoglobin was measured after 24 h.
Red blood cell (RBC) leakage assay was carried out according to a previously described procedure
(Evans et al, 2013). RBC were prepared from defibrinated sheep blood. Briefly, blood sample (5 mL) was centrifuged at 500 x g for 5 min. After removal of the yellow upper layer, an equal volume of

A549 cells [8] = test system: A549 cells; parameters: method as in Gaillard et al., 2019; conditions: A549, 24 h at 37°C, MTT assay; ref Gaillard et al., 2019; cited from earlier work
sheep RBC [9] = conditions: cited from earlier work
[10] = parameters: method as in Gaillard et al., 2019; conditions: pyrene fluorescence, ref Gaillard et al., 2019, cited from earlier work
H292 cells [11] = test system: H292 cells; parameters: method as in Gaillard et al., 2019; conditions: H292, 24 h at 37°C, MTT assay; ref Gaillard et al., 2019; cited from earlier work
16HBE cells [12] = test system: 16HBE cells; parameters: method as in Gaillard et al., 2019; conditions: 24 h at 37°C, MTT assay, ref Gaillard et al., 2019; cited from earlier work
[13] = Homo sapiens, NCI-H292, H292, 24 h at 37°C
[14] = HEPES buffer with Triton X-100, pH 7.4
[15] = potassium acetate/acetic acid buffer with Triton X-100, pH 4.5

Molecule	CMC (APLs) / CAC (pro-APLs) [1]	Particle size of lipoplexes [4]	H120 (hydrolysis rate after a 120-h incubation period) ([5]; pH 4.5)	H120 (hydrolysis rate after a 120-h incubation period) ([5]; pH 7.4)	IC50 (H292 cells [2]; [13])	IC50 (A549 cells [3]; Homo sapiens)	HA200 (hemolytic activity at 200 μM) (sheep RBC [7]; 24 h)	IC50 (16HBE cells [6]; Homo sapiens)	other results
3-((((((Dodecyloxy)carbonyl)oxy)methoxy)(hexadecyloxy)phosphoryl)oxy)-N,N,N-trimethylpropan-1- aminium chloride [MC12]	4.1 ± 2.5 µM	186 ± 48 nm	3%	11%	–	–	–	–	IC50 (H292 cells [2]; H292, 24 h at 37°C): 81 ± 29 µM; IC50 (A549 cells [3]): 151 ± 42 µM; IC50 (16HBE cells [6]): 62 ± 15 µM
CCCCCCCCCCCCCCCCOP(=O)(OCCCCCCCCCCCC)OCC[N+](C)(C)C (centres unmarked) [Compound M12, 2-(((Dodecyloxy)(hexadecyloxy)phosphoryl)oxy)-N,N,N-trimethylethan-1-aminium triflate]	1.1 ± 0.6 µM	121 ± 13 nm	0%	0%	56 ± 7 µM	46 ± 11 µM	63.9 ± 8.1%	107 ± 14 µM	HA200 (hemolytic activity at 200 μM) (sheep RBC [7]; 1 h): 13.1 ± 1.0%; Hydrolytic stability after extended incubation [5]: fully stable
Erufosine [reference compound]	–	–	–	–	–	–	–	–	IC50 (A549 cells [8]): 57 ± 8 µM; HA200 (hemolytic activity at 200 μM) (sheep RBC [9]): 84.9 ± 4.5%; CMC (APLs) / CAC (pro-APLs) [10]: 1.6 ± 0.5 µM; CMC (APLs) / CAC (pro-APLs) ([10]; listed as erufosine): 1.6 µM; IC50 (H292 cells [11]): 46 ± 8 µM; IC50 (16HBE cells [12]): 19 ± 3 µM
CCCCCCCC/C=C\CCCCCCCCOP(=O)(OCCC[N+](C)(C)C)OCOC(=O)OCCCCCCCCCCCC.[Cl-] (centres unmarked) [PC18:1, 3-((((((Dodecyloxy)carbonyl)oxy)methoxy)(oleyloxy)phosphoryl)oxy)-N,N,N-trimethylpropan-1-aminium chloride]	2.3 ± 1.0 µM	489 ± 130 nm	–	–	186 ± 42 µM	273 ± 69 µM	–	207 ± 49 µM	–
CCCCCCCCCCCCCCCCOP(=O)(OCC[N+](C)(C)C)OC(C)OC(=O)CCCCCCCCCCC.[Cl-] (centres unmarked) [M E^′12, 2-(((1-(Dodecanoyloxy)ethoxy)(hexadecyloxy)phosphoryl)oxy)-N,N,N-trimethylethan-1-aminium chloride]	1.3 ± 0.7 µM	86 ± 3 nm	91%	89%	59 ± 10 µM	139 ± 32 µM	101.7 ± 1.8%	49 ± 6 µM	half-life [5, 14]: 18 h; half-life [5, 15]: 17 h
CCCCCCCCCCCCCCCCCCOP(=O)(OC1CC[N+](C)(C)CC1)OC(C)OC(=O)CCCCCCCCCCC.[Cl-] (centres unmarked) [P E^′12, 4-(((1-(Dodecanoyloxy)ethoxy)(octadecyloxy)phosphoryl)oxy)-1,1-dimethylpiperidin-1-ium chloride]	2.3 ± 1.4 µM	610 ± 54 nm	60%	60%	116 ± 25 µM	148 ± 38 µM	80.1 ± 0.2%	60 ± 5 µM	half-life [5, 14]: 84 h; half-life [5, 15]: 90 h
3-((((((Dodecyloxy)carbonyl)oxy)methoxy)(octadecyloxy)phosphoryl)oxy)-N,N,N-trimethylpropan-1-aminium chloride [PC12]	4.5 ± 1.6 µM	576 ± 41 nm	6%	6%	–	–	–	–	IC50 (H292 cells [2]; H292, 24 h at 37°C): 73 ± 17 µM; IC50 (A549 cells [3]): 89 ± 24 µM; IC50 (16HBE cells [6]): 82 ± 33 µM
CCCCCCCCCCCCCCCCCCOP(=O)(OCCCCCCCCCCCC)OC1CC[N+](C)(C)CC1.[Cl-] (centres unmarked) [Compound P12, 4-(((Dodecyloxy)(octadecyloxy)phosphoryl)oxy)-1,1-dimethylpiperidin-1-ium chloride]	1.2 ± 0.4 µM	348 ± 43 nm	0%	0%	63 ± 5 µM	56 ± 7 µM	35.7 ± 4.1%	72 ± 7 µM	HA200 (hemolytic activity at 200 μM) (sheep RBC [7]; 1 h): 8.1 ± 0.9%; Hydrolytic stability after extended incubation [5]: fully stable
